Experimental data: US20210170033A1, “NOVEL CONJUGATES OF A PHARMACEUTICAL AGENT AND A MOIETY CAPABLE OF BINDING TO A GLUCOSE SENSING PROTEIN” (SANOFI, priority 2017, published 2021)
Like-named read-outs stand apart in the source and are kept apart here.

Tests used:
A2780 cells = assay: Deoxy-glucose uptake assay in A2780 cells (14C 2-deoxy-D-glucose transport); type: cell-based; details: Homo sapiens, 20 min; inhibition of 14C 2-deoxy-D-glucose transport into A2780 cells; 20 min compound incubation; read-out: IC50
Procedure, shortened: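 Radiolabelled 2-deoxy-D-glucose transport over 20 min was scintillation-counted in A2780 cells, grown 48 h, after 20 min compound exposure in KRB. Untreated cells gave the 100% reference, with Cytochalasin B defining background. IC50 values were regressed from triplicate means across 7 or 14 concentrations.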

[1] = tested on: A2780 Human Carcinoma Cells; assay: Glucose displacement assay (ATP measurement, CellTiter-Glo); type: cell-based; details: ATP measurement in A2780 cells, 0.5 μM rotenone
Protocol: 2. Glucose Displacement Assay (ATP Measurement)
30,000 A2780 Human Carcinoma Cells are seeded per well in a Greiner 96-well plate. Cells are expanded and cultured in RPMI 1640 medium+GlutaMAX® with 10% FCS and 11 mM glucose, at 37° C. with 5% CO2. After 44 h, culture media is changed and washed once with PBS to starvation media consisting of RPMI 1640 medium with 1% FCS without glucose for 2 hours. Cells are then washed with KRB buffer, followed by incubation for 20 min at 37° C. of the treatment mix consisting of 60 μL KRB buffer/well and 10 μL of compound or DMSO 10×. 10 μl of rotenone is added to the mix to a final concentration of 0.5 μM. Cell plates are left for 2 min at room temperature. 20 μL of different glucose concentrations are added to the mix—typically 0.1 to 10 mM range—.
Cells are incubated for another 15 min at 37° C., before measuring ATP with the CellTiter-Glo® Assay, under manufacturer's guidance, but without the equilibration step at room temperature for 30 min. In brief, 100 μl of Cell-Titer-Glo® Reagent is added to the wells containing already 100 μl of the previous reaction mix. Plates are mixed for 2 min at 800 rpm, followed by incubation at room temperature for 10 min to stabilize the luminescent signal. Luminescence is then recorded with the Tekan Ultra Evolution reader.

[2] = 1 mM glucose, read-out: IC50 [μM] at 1 mM glucose
[3] = 10 mM glucose, read-out: IC50 [μM] at 10 mM glucose

C#CCCCn1c(COc2c(Cl)cc(C(=O)O[C@H]3[C@@H](OC)O[C@H](CO)[C@@H](O)[C@@H]3O)c(C)c2Cl)nc2ccc(OC)cc21 [Example 291] was tested, and the IC50 (A2780 cells) was 100 nM, the IC50 [1, 2] was 0.12 µM and the IC50 [1, 3] was 0.29 µM.
Work on CO[C@H]1O[C@H](CO)[C@@H](O)[C@H](O)[C@H]1NC(=O)c1cc(Cl)c(OCc2noc3ccc(C)cc23)c(Cl)c1C [Example 324] yielded an IC50 (A2780 cells) of 2100 nM, an IC50 [1, 2] of 0.94 µM and an IC50 [1, 3] of 7.98 µM.
With COC(=O)[C@H](CCCCNC(=O)CCCCCCCCC(=O)NCc1cccc(COc2cc(OC)c(C(=O)N[C@H]3[C@@H](OC)O[C@H](CO)[C@@H](O)[C@@H]3O)cc2Cl)c1)NC(=O)OC(C)(C)C [Example 438] the IC50 (A2780 cells) was 13800 nM, the IC50 [1, 2] was 13 µM and the IC50 [1, 3] was > 33 µM.
For COC(=O)[C@H](CCCCNC(=O)CCCC(=O)Nc1cccc(COc2cc(OC)c(C(=O)N[C@H]3[C@@H](OC)O[C@H](CO)[C@@H](O)[C@@H]3O)cc2Cl)c1)NC(=O)OC(C)(C)C [Example 440], the IC50 (A2780 cells) was 7000 nM, the IC50 [1, 2] was 18 µM and the IC50 [1, 3] was > 33 µM.
CO[C@H]1O[C@H](CO)[C@@H](O)[C@H](O)[C@H]1OC(=O)c1cc(Cl)c(OCc2cccc(CNC(=O)CCCC(=O)OC(C)(C)C)c2)c(Cl)c1C [Example 349] gave an IC50 (A2780 cells) of 2500 nM, an IC50 [1, 2] of 1.46 µM and an IC50 [1, 3] of 7.76 µM.
In the case of COC(=O)[C@H](CCC(=O)NCCCCCCn1c(COc2c(Cl)cc(C(=O)N[C@H]3[C@@H](OC)O[C@H](CO)[C@@H](O)[C@@H]3O)c(C)c2Cl)nc2ccccc21)NC(=O)OC(C)(C)C [Example 342], the IC50 (A2780 cells) is reported as 34200 nM, the IC50 [1, 2] is reported as 2.18 µM and the IC50 [1, 3] is reported as > 100 µM.
Work on COc1cc(C(=O)O[C@H]2[C@@H](OC)O[C@H](CO)[C@@H](O)[C@@H]2O)cc(Cl)c1OCc1cccc(NC(=O)CCc2cc(C)nn2C)c1 [Example 313] yielded an IC50 [1, 2] of 3.2 µM and an IC50 [1, 3] of 18.8 µM.
For CO[C@H]1O[C@H](CO)[C@@H](O)[C@H](O)[C@H]1OC(=O)c1cc(Cl)c(OCc2nc3ccccc3n2Cc2ccccc2Cl)c(Cl)c1 [Example 116], the IC50 (A2780 cells) was 2200 nM, the IC50 [1, 2] was 16.7 µM and the IC50 [1, 3] was 104 µM.
In the case of COC(=O)/C=C/c1ccc(COc2cc(OC)c(C(=O)O[C@H]3[C@@H](OC)O[C@H](CO)[C@@H](O)[C@@H]3O)cc2Cl)cc1 [Example 352], the IC50 (A2780 cells) is reported as 40 nM, the IC50 [1, 2] is reported as 0.26 µM and the IC50 [1, 3] is reported as 1.05 µM.
Molecule CO[C@H]1O[C@H](CO)[C@@H](O)[C@H](O)[C@H]1NC(=O)c1cc(Cl)c(OCc2nc3ccccc3n2CCCCCCNC(=O)[C@H](CC(C)C)N(C)C(=O)OC(C)(C)C)c(Cl)c1C [Example 341] has an IC50 (A2780 cells) of 1600 nM, an IC50 [1, 2] of 0.72 µM and an IC50 [1, 3] of 2.61 µM.
In the case of CO[C@H]1O[C@H](CO)[C@@H](O)[C@H](O)[C@H]1OC(=O)c1cc(Cl)c(OCc2cccc(CNC(=O)CCC(=O)OC(C)(C)C)c2)c(Cl)c1C [Example 344], the IC50 (A2780 cells) is reported as 1000 nM, the IC50 [1, 2] is reported as 1.11 µM and the IC50 [1, 3] is reported as 8.59 µM.
With CO[C@H]1O[C@H](CO)[C@@H](O)[C@H](O)[C@H]1OC(=O)c1cc(Cl)c(OCc2noc3ccc(C)cc23)c(Cl)c1C [Example 325] the IC50 (A2780 cells) was 300 nM, the IC50 [1, 2] was 1.2 µM and the IC50 [1, 3] was 7.19 µM.
CO[C@H]1O[C@H](CO)[C@@H](O)[C@H](O)[C@H]1NC(=O)c1cc(Cl)c(OCc2cccc(CNC(=O)OC(C)(C)C)c2)c(Cl)c1C [Example 439] gave an IC50 (A2780 cells) of 3300 nM, an IC50 [1, 2] of 2.5 µM and an IC50 [1, 3] of 11.5 µM.
With C#CCCCn1c(COc2c(Cl)cc(C(=O)O[C@H]3[C@@H](OC)O[C@H](CO)[C@@H](O)[C@@H]3O)c(C)c2Cl)nc2cc(C)ccc21 [Example 330] the IC50 (A2780 cells) was 300 nM, the IC50 [1, 2] was 0.92 µM and the IC50 [1, 3] was 3.52 µM.
COC(=O)[C@H](CCCCNC(=O)CCCCCCC(=O)NCc1cccc(COc2cc(OC)c(C(=O)O[C@H]3[C@@H](OC)O[C@H](CO)[C@@H](O)[C@@H]3O)cc2Cl)c1)NC(=O)OC(C)(C)C [Example 413] showed an IC50 (A2780 cells) of 5100 nM, an IC50 [1, 2] of 10.3 µM and an IC50 [1, 3] of 30.9 µM.
With COC(=O)[C@H](CCCCNC(=O)CCCCCn1c(COc2c(Cl)cc(C(=O)N[C@H]3[C@@H](OC)O[C@H](CO)[C@@H](O)[C@@H]3O)c(C)c2Cl)nc2ccccc21)NC(=O)OC(C)(C)C [Example 322] the IC50 (A2780 cells) was 20000 nM, the IC50 [1, 2] was 1.42 µM and the IC50 [1, 3] was 7.06 µM.
